# In patent US20030235872A1, “Assay method” (priority 2002, published 2003):
# “Also recorded” adds a separate entry of the source.
# Key:
# [1] = test system: vascular SMC membranes (plasma membrane-enriched fraction); test: Biosensor (surface plasmon resonance, BIAcore L1 chip) binding of Aβ to vascular SMC membranes; parameters: species or system rat; KA1 (equilibrium association constant for high affinity binding component) / KA2 (equilibrium association constant of low-affinity binding component): unit not given here; conditions: for KA1 (equilibrium association constant for high affinity binding component) / KA2 (equilibrium association constant of low-affinity binding component): competing reaction model; for binding to plasma membrane-enriched fraction from vascular smooth muscle cells: FIG. 6
# Experimental: (§1) Vascular SMCs were plated at a density of 10^4 cells/well in a 96-well plate, or at a density of 10^6 cells/75 cm^2 cell culture flask (Nunc, Denmark) in 20 ml culture medium, and grown to 80% confluence, after which the medium was removed and replaced with fresh, serum-free medium with or without […] lovastatin.
# (§2) A crude plasma membrane preparation was prepared from vascular SMCs by differential centrifugation (Hubbard et al., 1983). Cells were scraped off 10×75 cm^2 flasks using a cell scraper, and centrifuged in DMEM at 3,000 rpm in a Beckman Coulter Allegra 21R centrifuge at 4° C. for 3 min. The pellet was then washed with phosphate-buffered saline (PBS), added to 10 ml of STM buffer (0.25 M sucrose/5 mM Tris-HCl, pH 7.4/1.0 mM MgCl2), and homogenized on ice using 10 up and down strokes in a 40 ml Dounce-type glass homogenizer with a loose-fitting pestle. The homogenate was centrifuged at 1,100 rpm for 5 min. The supernatant fraction was saved and the pellet rehomogenized in 5 ml of STM buffer. The suspension was again centrifuged, and the first and second supernatant fractions combined, then centrifuged at 40,000 rpm for 2 h (Beckman L8-M Ultracentrifuge, 70 Ti rotor, no brake) and the resulting crude plasma membrane fraction resuspended in 1.0 ml of 0.02 M sodium phosphate buffer, pH 7.4. Total membrane cholesterol was determined using the Amplex Red cholesterol assay kit (Molecular Probes, Eugene, Oreg., USA). The protein content of the membrane preparations was determined using the bicinchoninic acid (BCA) assay using bovine serum albumin as standard.
# (§3) Binding experiments were carried out with a BIAcore X analytical system (Biacore, Uppsala, Sweden) using an L1 sensor chip (Biacore), as supplied by the manufacturer. It will be appreciated that other types of biosensor may also be used, preferably provided that the chip surface is such that the bound lipid material is able to retain a bilayer or monolayer structure. The running buffer used for all experiments was 0.02 M sodium phosphate buffer, pH 6.8 (phosphate buffer). The washing solution was 40 mM N-octyl β-D-glucopyranoside. The regeneration solution was 10 mM sodium hydroxide. All solutions were freshly prepared, degassed and filtered through a […] filter. The operating temperature was 25° C.
# (§4) The alkyl surface of the L1 chip was cleaned by an injection of 25 μl of non-ionic 40 mM octyl glucoside at a flow rate of 5 μl/min. SUV (100 μl) or vascular SMC membranes (100 μl containing 0.33 mg protein) were then immediately applied to the chip surface at a low rate of 5 μl/min. To remove any multilamellar structures from the synthetic lipid surface, 30 μL of 10 mM sodium hydroxide was injected at a flow rate of […], resulting in a stable baseline corresponding to the successful formation of an immobilized layer of SUVs.
# (§5) Peptide solutions were prepared at concentrations ranging from 0.5 to 10 μM. The solutions were injected over the lipid surface at a flow rate of 5 μl/min for 20 min. The peptide solution was then replaced by phosphate buffer and the peptide-membrane complex allowed to dissociate. The removal of the bound peptide and regeneration of the L1 chip surface, without removal of the synthetic lipid or vascular SMC membrane layer, was achieved by an injection of sodium hydroxide (30 μl, 10 mM) at a flow rate of 50 μl/min.
# [2] = test system: vascular SMC membrane cholesterol; test: Cholesterol and protein content of plasma membrane fraction from lovastatin-treated vascular SMCs; type: cell-based, rat; conditions: cells pretreated with lovastatin 72 h; Amplex Red cholesterol assay
# Experimental: as §1
# as §2, with “The suspension was again centrifuged, and the first and second supernatant fractions combined, then centrifuged at 40,000 rpm for 2 h (Beckman L8-M Ultracentrifuge, 70 Ti rotor, no brake) and the resulting crude plasma membrane fraction resuspended in 1.0 ml of 0.02 M sodium phosphate buffer, pH 7.4.” left out, “standard. […]” for “standard.”
# vascular SMCs [3] = test: Effect of lovastatin pretreatment on Aβ toxicity in vascular SMCs (MTS assay); conditions: lovastatin pretreatment 72 h
# vascular SMCs [4] = test: MTS assay of cytotoxicity of Aβ peptides against vascular smooth muscle cells; type: cell-based, rat; conditions: 24 h, FIG. 1; for toxicity against vascular SMCs (MTS assay): peptide 10 μM; for toxicity against vascular SMCs after aging the peptide (MTS assay): peptide aged 5 days, 10 μM
# Experimental: (§6) Aβ 1-42, Aβ 1-40, Aβ 1-28, Aβ 17-42 and Aβ 29-42 were dissolved in dimethyl sulfoxide (DMSO) at a concentration of 2 mM. The peptide solutions were then sonicated (42 kHz) for 5 minutes, and centrifuged at 5,000 rpm for 1 minute at room temperature using a Hermle Z160M bench microfuge. Solubilised peptides were immediately snap-frozen and mixed on a vortex mixer for 15 seconds. The peptides were then diluted into DMEM for cell culture experiments, or in 0.02 M sodium phosphate buffer, pH 6.8 for biosensor experiments, to give a final concentration of 10 μM.
# as §1
# The F3-(4,5-dimethylthiazol-2-yl)-5-(3-carboxymethoxyphenyl)-2(4-sulfophenyl)-2H-tetrazolium (MTS) reagent solution was added to the culture medium at a concentration of 10% (by volume).
# To measure Aβ toxicity against vascular SMCs, cultures of cells were treated with Aβ peptides and analogues (10 μM) and the amount of toxicity determined using the MTS assay (Cory et al., 1991). […] Aging the peptides by incubation for 5 days caused a significant increase in toxicity. Previous studies (e.g., Pike et al., 1991) have shown that the aggregation of the Aβ into fibrils may be important for the generation of toxic species. The present results support this conclusion. […] In general, the amount of Aβ toxicity approximately correlated with the proportion of fibrillar species.
# [5] = Congo Red assay of amyloid fibrils; type: physicochemical; conditions: peptide aged 5 days, 10 μM; FIG. 2
# Experimental: as §6
# The concentration of amyloid fibrils was measured using the assay of Klunk et al. (1999). Aβ peptides were mixed with Congo red (CR) in 0.02 M sodium phosphate buffer, pH 6.8. The final concentration of peptide and CR was 10 μM. Solutions of CR alone were also prepared in 0.02 M sodium phosphate buffer, pH 6.8. The mixture was vortexed briefly and then incubated at room temperature for 15 min. The absorbances at 403 and 541 nm were measured using a BioRad SmartSpec 3000 spectrophotometer. Background absorbance values of buffer alone were subtracted from the values obtained from each sample. The concentration of Aβ fibrils in each preparation was then determined using the formula
# All preparations were prepared in triplicate, and the assay was conducted independently three times, with similar results being obtained in each experiment.
# [6] = test system: synthetic lipid mixtures (cholesterol: phospholipid SUV); test: Biosensor (surface plasmon resonance, BIAcore L1 chip) binding of Aβ to synthetic lipid mixtures; parameters: KA1 (equilibrium association constant for high affinity binding component) / KA2 (equilibrium association constant of low-affinity binding component): unit not given here; conditions: for KA1 (equilibrium association constant for high affinity binding component) / KA2 (equilibrium association constant of low-affinity binding component): competing reaction model; for extent of binding to the synthetic lipid mixture: 10 μM, cholesterol: phospholipid 60:40, compared with Aβ 1-28, FIG. 4
# Experimental: Small 100 nm unilamellar vesicles (SUV), containing DMPC, DMPG, DMPS and DMPE, and cholesterol, were prepared in 0.02 M phosphate buffer (pH 6.8) by sonication and extraction. Briefly, 1.5 mg of total lipid was dissolved in 1.5 ml of CHCl3: MeOH (3:1, v/v). Aliquots (408 μl) were removed and evaporated under a stream of nitrogen, and the lipids further dried in vacuo overnight. The lipids were then resuspended in 600 μl of 0.02 M sodium phosphate buffer, pH 6.8. The resulting lipid dispersion was sonicated in a bath type sonicator until clear, and then extruded 17 times through 100 nm pore diameter polycarbonate filters using Liposofast apparatus (Avestin, Ottawa, Canada) to obtain 100 nm […]. The mixed lipid vesicles contained 80% (w/w), 60% (w/w), 40% (w/w), 30% (w/w) or 0% (w/w) cholesterol. The remaining lipid comprised a mixture of DMPC: DMPE: DMPS: DMPG in a ratio of 75:20:2.5:2.5 (by weight).
# as §3, §4, §5
# The amount of binding in response units (RU) was fitted by a simple one-to-one Langmuir reaction model (Morton et al., 1995):
# or a competing reaction model (Karlsson and Falt, 1997):
# using BIAevaluation 3.0 software (Biacore). The data obtained from five different binding experiments performed at five different concentrations of peptide were fitted globally to obtain the equilibrium association constant (KA). The accuracy of each fit was assessed by calculating a X^2 value for the data (Karlsson and Failt, 1997). A lower X^2 value was taken as an indication of a better fit of the data. […] Scatchard plots were generated using BIAevaluation 3.0 software (Biacore).
# As previous studies have shown that Aβ can interact directly with lipid membranes, we examined the possibility that the toxic effects of Aβ were due to a direct interaction with the vascular SMC membrane. To study the binding of Aβ to lipids, biosensor technology was employed.
# [7] = membranes from lovastatin-treated vascular SMCs (72 h)
# [8] = membranes from untreated vascular SMCs
KA1 (equilibrium association constant for high affinity binding component) ([6]; Cholesterol: PL ratio 30 : 70),KA2 (equilibrium association constant of low-affinity binding component) ([6]; Cholesterol: PL ratio 30 : 70),KA2 (equilibrium association constant of low-affinity binding component) ([6]; Cholesterol: PL ratio 60 : 40),KA1 (equilibrium association constant for high affinity binding component) ([6]; Cholesterol: PL ratio 80 : 20),KA2 (equilibrium association constant of low-affinity binding component) ([6]; Cholesterol: PL ratio 80 : 20),"KA1 (equilibrium association constant for high affinity binding component) [1, 7]","KA2 (equilibrium association constant of low-affinity binding component) [1, 7]","KA1 (equilibrium association constant for high affinity binding component) [1, 8]","KA2 (equilibrium association constant of low-affinity binding component) [1, 8]",extent of binding to the synthetic lipid mixture [6],Compound,toxicity against vascular SMCs (MTS assay) (vascular SMCs [4]),toxicity against vascular SMCs after aging the peptide (MTS assay) (vascular SMCs [4]),binding to plasma membrane-enriched fraction from vascular smooth muscle cells ([1]; peptide 10 μM),other results
1.1 × 10^5,5.2 × 10^4,1.3 × 10^6,4.8 × 10^7,1.0 × 10^7,4.1 × 10^4,3.6 × 10^4,8.3 × 10^5,5.9 × 10^5,,"Aβ1-40: β-amyloid protein peptide, residues 1-40, made by manual solid-phase Boc synthesis",significant toxicity,,bound to the membrane fraction,KA1 (equilibrium association constant for high affinity binding component) ([6]; Cholesterol: PL ratio 60 : 40): 4.0 × 10^7; total amount of binding to SMC membrane fraction relative to synthetic lipid mixture containing 60% cholesterol and 40% phospholipid ([1]; peptide 10 μM): approximately 10%
,,,,,,,,,bound more strongly,"Aβ17-42: C-terminal Aβ fragment, residues 17-42 (LVFFAEDVGSNKGAIIGLMVGGVVIA; Amyloid-beta protein 42; UniProt P05067 688-713, looked up, fragment)",significant toxicity,,,
,,,,,,,,,bound more strongly,"Aβ29-42: C-terminal Aβ fragment, residues 29-42 (GAIIGLMVGGVVIA; Amyloid-beta protein 42; UniProt P05067 700-713, looked up, fragment)",significant toxicity,,,

# Second part, the compound before the results:
Compound,KA1 (equilibrium association constant for high affinity binding component) ([6]; Cholesterol: PL ratio 30 : 70),KA2 (equilibrium association constant of low-affinity binding component) ([6]; Cholesterol: PL ratio 30 : 70),KA2 (equilibrium association constant of low-affinity binding component) ([6]; Cholesterol: PL ratio 60 : 40),KA1 (equilibrium association constant for high affinity binding component) ([6]; Cholesterol: PL ratio 80 : 20),KA2 (equilibrium association constant of low-affinity binding component) ([6]; Cholesterol: PL ratio 80 : 20),"KA1 (equilibrium association constant for high affinity binding component) [1, 7]","KA2 (equilibrium association constant of low-affinity binding component) [1, 7]","KA1 (equilibrium association constant for high affinity binding component) [1, 8]","KA2 (equilibrium association constant of low-affinity binding component) [1, 8]",extent of binding to the synthetic lipid mixture [6],toxicity against vascular SMCs (MTS assay) (vascular SMCs [4]),toxicity against vascular SMCs after aging the peptide (MTS assay) (vascular SMCs [4]),binding to plasma membrane-enriched fraction from vascular smooth muscle cells ([1]; peptide 10 μM),other results
"CC[C@H](C)C(=O)O[C@H]1C[C@@H](C)C=C2C=C[C@H](C)[C@H](CC[C@@H]3C[C@@H](O)CC(=O)O3)[C@H]21 [lovastatin, Lovastatin]",,,,,,,,,,,,,,"Aβ1-40 and Aβ1-42 binding to plasma membrane fraction of lovastatin-treated cells, relative to that without lovastatin pretreatment ([1]; cells pretreated with lovastatin 72 h, unaged Aβ 10 μM, RU20): approximately 25%; cholesterol content of the membrane fraction relative to untreated cells [2]: approximately 55%; effect of lovastatin alone on the ability of vascular SMCs to reduce MTS (vascular SMCs [3]; no Aβ): little effect; reduction of the Aβ1-40 and Aβ1-42-induced decrease in MTS reduction in lovastatin-treated cells versus controls (vascular SMCs [3]; then unaged Aβ 10 μM 24 h, FIG. 7): 25-40%"
"Aβ1-28: N-terminal Aβ fragment, residues 1-28",,,,,,,,,,,less toxic,still toxic; also recorded: significantly less toxic,,fibrillar species (Congo red binding assay) [5]: failed to form fibrils; also recorded: formed fewer fibrillar species
"Aβ1-42: β-amyloid protein peptide, residues 1-42, made by manual solid-phase Boc synthesis",1.8 × 10^5,6.9 × 10^4,4.8 × 10^7,2.7 × 10^8,6.9 × 10^7,9.3 × 10^4,5.3 × 10^4,1.8 × 10^6,9.6 × 10^5,,significant toxicity,significant increase in cytotoxicity,bound to the membrane fraction,
